Test results from patent US10947263B2, “Cyclic dinucleotides as anticancer agents” (BRISTOL-MYERS SQUIBB COMPANY, priority 2017, dated 2021).
Where two headings read alike, the source gives them in different places.

What was measured:
[1] = target: T1, STING WT (His-TVMV-S-hSTING(155-341)-H232R) (Homo sapiens, UniProt Q86WV6, H232R); assay: STING HTRF binding assay (time resolved FRET competition), STING WT; settings: 20 nM His-tagged STING WT cytoplasmic domain, 200 nM fluorescein-labeled cGAMP analog probe, one hour; read-out: HTRF Binding Assays IC50 WT
T1 construct: STING WT: His-TVMV-S-hSTING(155-341)-H232R
T1 sequence (Q86WV6 with tags, fused parts or gaps H232R): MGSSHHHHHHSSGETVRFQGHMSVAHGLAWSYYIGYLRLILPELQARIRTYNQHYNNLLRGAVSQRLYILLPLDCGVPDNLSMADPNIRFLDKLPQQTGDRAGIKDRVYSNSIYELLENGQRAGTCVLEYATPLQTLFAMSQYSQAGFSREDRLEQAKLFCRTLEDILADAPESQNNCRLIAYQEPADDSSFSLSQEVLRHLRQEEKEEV
Experimental: (§1) A time resolved FRET-based competition binding assay was used to assess test article binding to STING WT and STING AQ. His-tagged STING cytoplasmic domain (WT or AQ) at a concentration of 20 nM was incubated with 2.5 nM Tb-labeled anti-His antibody, test compound, and fluorescein-labeled cGAMP analog probe (BioLog cat. no. C195) at a concentration of 200 nM (STING WT) or 40 nM (STING AQ) in PBS containing 0.005% Tween-20 and 0.1% BSA for one hour. Fluorescence at 495 nm and 520 nm was measured using an EnVision microplate reader to quantify FRET between Tb-labeled anti-His antibody and fluorescein-labeled probe. Background was defined as the signal obtained in the absence of STING protein, and background subtracted FRET ratios were normalized to the maximum signal obtained in the absence of test compound. These values were converted to a percent inhibition. Percent inhibition was determined for test compounds at 11 concentrations. The IC50, defined as the concentration of competing test compound needed to reduce specific binding of the probe by 50%, was calculated using the 4 parameter logistic equation to fit the data
STING WT: His-TVMV-S-hSTING(155-341)-H232R • […] […] […] […] LRQEEKEEV (SEQ ID NO:1)

[2] = test system: STING / NF-κB pathway in THP1-Dual cells; assay: STING THP1 Reporter Assay, NF-κB pathway (SEAP, QUANTI-Blue); type: cell-based; settings: 10% human plasma, 100% activation = 100 μM cGAMP, SEAP readout, read-out: THP1 Reporter Assays EC50 NFkB
Source text: (§2) THP1-Dual™ cells were derived from the human THP-1 monocyte cell line by stable integration of two inducible reporter constructs. To this end, THP1-Dual™ cells allow the simultaneous study of the […], by monitoring the activity of SEAP, and the IRF pathway by assessing the activity of a secreted luciferase (Lucia). Both reporter proteins are readily measurable in the cell culture supernatant when using QUANTI-Blue™, a SEAP detection reagent, and QUANTI-Luc™, a luciferase detection reagent.
(§3) THP1-Dual™ cells induce the activation of NF-κB in response to STING agonists. They also trigger the IRF pathway upon stimulation with STING agonists, such as cGAMP. Here, the THP-1-Dual cells were used to assess STING binders for function on the cellular level.
(§4) Serial dilutions of compounds in DMSO were added to low volume 384 well plates at 100 nl/well using an ECHO acoustic dispenser (Labcyte, model 550) to achieve final starting concentration of 100 μM in cell suspension. THP-1 Dual™ STING reporter cells (Invivogen, Dual cells cat #THPD-nfis) were added to the plates with compounds at 15,000 cells in 10 μL per well in RPMI media (Gibco, cat #11875) containing 10% human plasma in a low volume 384-well black wall clear bottom tissue culture plate (Corning, cat #3542) for SEAP assay and low volume solid white plate (Corning, cat #3826) for luciferase assay. One column of the plate was reserved for treatment with cGAMP at 100 μM for 100% activation calculation and one column for no treatment (DMSO only) for baseline activation. Plates were then incubated in 37 OC incubator at 5% CO2 for 20 hours.
(§5) In the SEAP assay, […] 2× QuantiBlue (Invivogen, cat #Rep-qb2) is added to 384 well black plates seeded with THP1 cells and incubated at 37° C. for 2 hours. Plates were read on the Envision (Perkin Elmer) at 620 nm wavelength (OD620). In the luciferase assay, 5 μl of Quantiluc (Invivogen, Rep-qlc2) is added to white 384 well plates seeded with THP1 cells and read at 5 minutes on the Envision (Perkin Elmer) using a luminescence protocol (RLU). For both cell lines, 100% activation was determined by value (RLU) of THP-1 Dual STING cells stimulated with 100 μM cGAMP (Invivogen, cat #TLRL-NACGA23-5).

[3] = target: T2, STING AQ (His-TVMV-S-hSTING(155-341)-G230A-R293Q) (Homo sapiens, UniProt Q86WV6, G230A/H232R/R293Q); assay: STING HTRF binding assay (time resolved FRET competition), STING AQ; settings: 20 nM His-tagged STING AQ cytoplasmic domain, 40 nM fluorescein-labeled cGAMP analog probe, one hour; read-out: HTRF Binding Assays IC50 AQ
T2 construct: STING AQ: His-TVMV-S-hSTING(155-341)-G230A-R293Q
T2 sequence (Q86WV6 with tags, fused parts or gaps G230A/H232R/R293Q): as the sequence (Q86WV6 with tags, fused parts or gaps H232R) above, with G99A, R162Q counted along it
Experimental: as §1
STING AQ: His-TVMV-S-hSTING(155-341)-G230A-R293Q • […] […] […] […] LRQEEKEEV (SEQ ID NO:2)

[4] = test system: STING / IRF pathway in THP1-Dual cells; assay: STING THP1 Reporter Assay, IRF pathway (secreted Lucia luciferase, QUANTI-Luc); type: cell-based; settings: 10% human plasma, 100% activation = 100 μM cGAMP, luciferase readout, read-out: THP1 Reporter Assays EC50 IRF3
Source text: as §2, §3, §4, §5

Molecule `NC(=O)c1cccc2c1nnn2[C@@H]1O[C@@H]2COP(=O)(O)O[C@H]3[C@@H](F)[C@H](n4cnc5c(N)ncnc54)O[C@@H]3COP(=O)(S)O[C@@H]1[C@@H]2F` (single isomer, unassigned) [Example 6-2] has an IC50 [1] of 50 nM, an EC50 ([2]; 20 hours) of 36800 nM and an IC50 [3] of 4 nM. For the same molecule, the EC50 ([4]; 20 hours) was 8800 nM.
Molecule `Nc1ncnc2c1ncn2[C@@H]1O[C@@H]2COP(=O)(S)O[C@@H]3[C@H](F)[C@@H](COP(=O)(S)O[C@H]2[C@H]1F)O[C@H]3n1nnc2c([N+](=O)[O-])cccc21` (single isomer, unassigned) [Example 11-2] has an IC50 [1] of 10 nM, an EC50 ([2]; 20 hours) of 300 nM and an IC50 [3] of 3 nM. For the same molecule, the EC50 ([4]; 20 hours) was 130 nM.
In the case of `NC(=O)c1cccc2c1nnn2[C@@H]1O[C@@H]2COP(=O)(S)O[C@H]3[C@@H](F)[C@H](n4cnc5c(N)ncnc54)O[C@@H]3COP(=O)(S)O[C@@H]1[C@@H]2O` (single isomer, unassigned) [Example 8-1], the IC50 [1] is reported as 10 nM, the EC50 ([2]; 20 hours) is reported as 2400 nM and the IC50 [3] is reported as 10 nM. The EC50 ([4]; 20 hours) was 1000 nM.
`C=C1[C@H]2OP(=O)(S)OC[C@H]3O[C@@H](n4cnc5c(N)ncnc54)[C@H](F)[C@@H]3OP(=O)(S)OC[C@H]1O[C@H]2n1nnc2c(C(N)=O)cccc21` (single isomer, unassigned) [Example 22-2] gave an IC50 [1] of 70 nM, an EC50 ([2]; 20 hours) of 10000 nM and an IC50 [3] of 10 nM. The EC50 ([4]; 20 hours) was 3200 nM.
`NC(=O)c1cccc2c1nnn2[C@@H]1O[C@@H]2COP(=O)(S)O[C@H]3[C@@H](F)[C@H](n4cnc5c(N)ncnc54)O[C@@H]3COP(=O)(S)O[C@@H]1[C@@H]2O` (single isomer, unassigned) [Example 8-3] gave an IC50 [1] of 140 nM, an EC50 ([2]; 20 hours) of 15300 nM and an IC50 [3] of 20 nM. For the same molecule, the EC50 ([4]; 20 hours) was 10000 nM.
For `NC(=O)c1cccc2c1nnn2[C@@H]1O[C@@H]2COP(=O)(O)O[C@H]3[C@@H](F)[C@H](n4cnc5c(N)ncnc54)O[C@@H]3COP(=O)(O)O[C@@H]1[C@@H]2O` [Example 1, 1-[(1R,6R,8R,9R,10R,15R,17R,18R)-8-(6-amino-9H-purin-9-yl)-9-fluoro-3,12,18-trihydroxy-3,12-dioxo-2,4,7,11,13,16-hexaoxa-3λ^5,12λ^5-diphosphatricyclo[13.2.1.0^6,10]octadecan-17-yl]-1H-1,2,3-benzotriazole-4-carboxamide], the IC50 [1] was 10 nM, the EC50 ([2]; Homo sapiens, THP1-Dual, 20 h) was 3200 nM and the IC50 [3] was 3 nM. It also gave an EC50 ([4]; Homo sapiens, THP1-Dual, 20 h) of 1500 nM.
Molecule `NC(=O)c1cccc2c1nnn2[C@@H]1O[C@@H]2COP(=O)(S)O[C@H]3[C@@H](F)[C@H](n4cnc5c(N)ncnc54)O[C@@H]3COP(=O)(S)O[C@@H]1[C@@H]2F` (single isomer, unassigned) [Example 10-3] has an IC50 [1] of 50 nM, an EC50 ([2]; 20 hours) of 8900 nM and an IC50 [3] of 5 nM. For the same molecule, the EC50 ([4]; 20 hours) was 5100 nM.
Molecule `Nc1ncnc2c1ncn2[C@@H]1O[C@@H]2COP(=O)(S)O[C@@H]3[C@H](O)[C@@H](COP(=O)(S)O[C@H]2[C@H]1F)O[C@H]3n1nnc2c(C(F)(F)F)cccc21` (single isomer, unassigned) [Example 9-2] has an IC50 [1] of 130 nM, an EC50 ([2]; 20 hours) of 15700 nM and an IC50 [3] of 10 nM. The EC50 ([4]; 20 hours) was 7900 nM.
`Nc1ncnc2c1ncn2[C@@H]1O[C@@H]2COP(=O)(S)O[C@@H]3[C@H](F)[C@@H](COP(=O)(S)O[C@H]2[C@H]1F)O[C@H]3n1nnc2c([N+](=O)[O-])cccc21` (single isomer, unassigned) [Example 11-3] showed an IC50 [1] of 50 nM, an EC50 ([2]; 20 hours) of 9700 nM and an IC50 [3] of 10 nM. For the same molecule, the EC50 ([4]; 20 hours) was 4000 nM.
Work on `NC(=O)c1cccc2c1nnn2[C@@H]1O[C@@H]2COP(=O)(O)O[C@H]3[C@@H](F)[C@H](n4cnc5c(N)ncnc54)O[C@@H]3COP(=O)(S)O[C@@H]1[C@@H]2O` (single isomer, unassigned) [Example 4-2] yielded an IC50 [1] of 10 nM, an EC50 ([2]; 20 hours) of 1700 nM and an IC50 [3] of 2 nM. The EC50 ([4]; 20 hours) was 700 nM.
Work on `C=C1[C@H]2OP(=O)(S)OC[C@H]3O[C@@H](n4cnc5c(N)ncnc54)[C@H](F)[C@@H]3OP(=O)(S)OC[C@H]1O[C@H]2n1nnc2c(C(N)=O)cccc21` (single isomer, unassigned) [Example 22-1] yielded an IC50 [1] of 10 nM, an EC50 ([2]; Homo sapiens, THP1-Dual, 20 h) of 5100 nM and an IC50 [3] of 10 nM. It also gave an EC50 ([4]; Homo sapiens, THP1-Dual, 20 h) of 2300 nM.
`NC(=O)c1cccc2c1nnn2[C@@H]1O[C@@H]2COP(=O)(O)O[C@H]3[C@@H](F)[C@H](n4cnc5c(N)ncnc54)O[C@@H]3COP(=O)(S)O[C@@H]1[C@@H]2O` (single isomer, unassigned) [Example 4-1] gave an IC50 [1] of 60 nM, an EC50 ([2]; 20 hours) of 12000 nM and an IC50 [3] of 10 nM. The EC50 ([4]; 20 hours) was 4500 nM.
For `Nc1ncnc2c1ncn2[C@@H]1O[C@@H]2COP(=O)(S)O[C@@H]3[C@H](O)[C@@H](COP(=O)(S)O[C@H]2[C@H]1F)O[C@H]3n1nnc2c(C(F)(F)F)cccc21` (single isomer, unassigned) [Example 9-3], the IC50 [1] was 900 nM, the EC50 ([2]; 20 hours) was > 100000 nM and the IC50 [3] was 40 nM. The EC50 ([4]; 20 hours) was 69400 nM.
In the case of `NC(=O)c1cccc2c1nnn2[C@@H]1O[C@@H]2COP(=O)(S)O[C@H]3[C@@H](F)[C@H](n4cnc5c(N)ncnc54)O[C@@H]3COP(=O)(S)O[C@@H]1[C@@H]2F` (single isomer, unassigned) [Example 10-1], the IC50 [1] is reported as 20 nM, the EC50 ([2]; 20 hours) is reported as 2220 nM and the IC50 [3] is reported as 5 nM. For the same molecule, the EC50 ([4]; 20 hours) was 1330 nM.
For `NC(=O)c1cccc2c1nnn2[C@@H]1O[C@@H]2COP(=O)(S)O[C@H]3[C@@H](F)[C@H](n4cnc5c(N)ncnc54)O[C@@H]3COP(=O)(S)O[C@@H]1[C@@H]2O` (single isomer, unassigned) [Example 8-2], the IC50 [1] was 10 nM, the EC50 ([2]; 20 hours) was 7600 nM and the IC50 [3] was 10 nM. For the same molecule, the EC50 ([4]; 20 hours) was 5200 nM.
`Nc1ncnc2c1ncn2[C@@H]1O[C@@H]2COP(=O)(S)O[C@@H]3[C@H](O)[C@@H](COP(=O)(S)O[C@H]2[C@H]1F)O[C@H]3n1nnc2c([N+](=O)[O-])cccc21` (single isomer, unassigned) [Example 7-1] showed an IC50 [1] of 10 nM, an EC50 ([2]; 20 hours) of 2100 nM and an IC50 [3] of 10 nM. It also gave an EC50 ([4]; 20 hours) of 600 nM.
`Nc1ncnc2c1ncn2[C@@H]1O[C@@H]2COP(=O)(S)O[C@@H]3[C@H](O)[C@@H](COP(=O)(O)O[C@H]2[C@H]1F)O[C@H]3n1nnc2c([N+](=O)[O-])cccc21` (single isomer, unassigned) [Example 5-1] showed an IC50 [1] of 10 nM, an EC50 ([2]; Homo sapiens, THP1-Dual, 20 h) of 7600 nM and an IC50 [3] of 10 nM. For the same molecule, the EC50 ([4]; Homo sapiens, THP1-Dual, 20 h) was 3500 nM.
